Test results taken from ChEMBL document CHEMBL1201862, “PubChem BioAssay data set” (2004).
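Grown in 96-well plates, cells were treated for 48 hours with each compound at five concentrations. Insufficient inhibition: endpoint recorded as highest concentration tested. GI50 marks 50% less growth.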 Active and inactive are the calls of the source. Rule as the data show it: active = GI50 up to about 1.1 µM and inactive = higher.

Tests used:
Assay in all cases: NCI-60 cell line screen, 48 h
RPMI-8226 = system: RPMI-8226
TK-10 = system: TK-10
NCI-H522 = system: NCI-H522
786-0 = system: 786-0
SK-MEL-5 = system: SK-MEL-5
UACC-62 = system: UACC-62
HCT-15 = system: HCT-15
CCRF-CEM = system: CCRF-CEM
KM12 = system: KM12
SF-268 = system: SF-268
SN12C = system: SN12C
BT-549 = system: BT-549
UO-31 = system: UO-31
DU-145 = system: DU-145
UACC-257 = system: UACC-257
M14 = system: M14
NCI-H460 = system: NCI-H460
A549 = system: A549
LOX IMVI = system: LOX IMVI
COLO 205 = system: COLO 205
OVCAR-3 = system: OVCAR-3
Hs-578T = system: Hs-578T
MOLT-4 = system: MOLT-4
K562 = system: K562
SF-295 = system: SF-295
SR = system: SR
MCF7 = system: MCF7
A498 = system: A498
SK-MEL-2 = system: SK-MEL-2
T47D = system: T47D
OVCAR-4 = system: OVCAR-4
MDA-MB-435 = system: MDA-MB-435
MDA-MB-231 = system: MDA-MB-231
IGROV-1 = system: IGROV-1
RXF 393 = system: RXF 393
ACHN = system: ACHN
NCI-H23 = system: NCI-H23
NCI/ADR-RES = system: NCI/ADR-RES
PC-3 = system: PC-3
SW-620 = system: SW-620
HOP-92 = system: HOP-92
HL-60 = system: HL-60
SNB-19 = system: SNB-19
SF-539 = system: SF-539
Malme-3M = system: Malme-3M
EKVX = system: EKVX
CAKI-1 = system: CAKI-1
OVCAR-8 = system: OVCAR-8
HOP-62 = system: HOP-62
OVCAR-5 = system: OVCAR-5
SK-OV-3 = system: SK-OV-3
SK-MEL-28 = system: SK-MEL-28
HT-29 = system: HT-29
U-251 = system: U-251
HCT-116 = system: HCT-116
MDA-N = system: MDA-N
SNB-75 = system: SNB-75
NCI-H226 = system: NCI-H226

With `CCCCCC1CC=CC(=O)O1` (centres undefined) the GI50 (RPMI-8226) was 1.91 µM (inactive), the GI50 (TK-10) was 11.6 µM (inactive) and the GI50 (NCI-H522) was 2.92 µM (inactive). For the same compound, the GI50 (786-0) was 3.85 µM (inactive), the GI50 (SK-MEL-5) was 12.4 µM (inactive) and the GI50 (UACC-62) was 11.5 µM (inactive). The GI50 (HCT-15) was 5.07 µM, the GI50 (CCRF-CEM) was 2.39 µM (inactive) and the GI50 (KM12) was 4.39 µM (inactive). The GI50 (SF-268) was 10.6 µM (inactive), the GI50 (SN12C) was 6.73 µM (inactive) and the GI50 (BT-549) was 12.3 µM (inactive). For the same compound, the GI50 (UO-31) was 8.89 µM (inactive), the GI50 (DU-145) was 17.4 µM (inactive) and the GI50 (UACC-257) was 14.1 µM (inactive). For the same compound, the GI50 (M14) was 12 µM (inactive), the GI50 (NCI-H460) was 11 µM (inactive) and the GI50 (A549) was 6.81 µM (inactive). The GI50 (LOX IMVI) was 7.62 µM (inactive), the GI50 (COLO 205) was 4.06 µM (inactive) and the GI50 (OVCAR-3) was 10.5 µM (inactive). For the same compound, the GI50 (Hs-578T) was 18 µM (inactive), the GI50 (MOLT-4) was 2.25 µM (inactive) and the GI50 (K562) was 5.4 µM (inactive). For the same compound, the GI50 (SF-295) was 11.5 µM (inactive), the GI50 (SR) was 3.39 µM (inactive) and the GI50 (MCF7) was 6.52 µM (inactive). The GI50 (A498) was 26.1 µM (inactive), the GI50 (SK-MEL-2) was 6.84 µM (inactive) and the GI50 (T47D) was 11.4 µM (inactive). For the same compound, the GI50 (OVCAR-4) was 1.18 µM (inactive), the GI50 (MDA-MB-435) was 5.43 µM (inactive) and the GI50 (MDA-MB-231) was 10.6 µM (inactive). The GI50 (IGROV-1) was 2.94 µM (inactive), the GI50 (RXF 393) was 4.49 µM (inactive) and the GI50 (ACHN) was 7.62 µM (inactive). The GI50 (NCI-H23) was 5.69 µM (inactive), the GI50 (NCI/ADR-RES) was 5.73 µM (inactive) and the GI50 (PC-3) was 3.78 µM (inactive). The GI50 (SW-620) was 4.1 µM (inactive), the GI50 (HOP-92) was 1.2 µM (inactive) and the GI50 (HL-60) was 4.93 µM (inactive). For the same compound, the GI50 (SNB-19) was 10.5 µM (inactive), the GI50 (SF-539) was 1.32 µM (inactive) and the GI50 (Malme-3M) was 0.933 µM (active). For the same compound, the GI50 (EKVX) was 3.24 µM (inactive), the GI50 (CAKI-1) was 3.72 µM (inactive) and the GI50 (OVCAR-8) was 5.97 µM (inactive). For the same compound, the GI50 (HOP-62) was 4.36 µM (inactive), the GI50 (OVCAR-5) was 6.84 µM (inactive) and the GI50 (SK-OV-3) was 7.53 µM (inactive). For the same compound, the GI50 (SK-MEL-28) was 4.51 µM (inactive), the GI50 (HT-29) was 3.89 µM (inactive) and the GI50 (U-251) was 3.56 µM (inactive). For the same compound, the GI50 (HCT-116) was 2.04 µM (inactive) and the GI50 (MDA-N) was 6.15 µM (inactive).

In the case of `C(=N\c1cnc2ccccc2c1)/c1ccc2ccccc2n1`, the GI50 (RPMI-8226) is reported as 29.2 µM (inactive), the GI50 (TK-10) is reported as > 100 µM (inactive) and the GI50 (NCI-H522) is reported as > 100 µM (inactive). For the same compound, the GI50 (786-0) was > 100 µM (inactive), the GI50 (SK-MEL-5) was > 100 µM (inactive) and the GI50 (UACC-62) was > 100 µM (inactive). The GI50 (HCT-15) was 55.6 µM, the GI50 (CCRF-CEM) was 23.8 µM (inactive) and the GI50 (KM12) was > 100 µM (inactive). The GI50 (SF-268) was > 100 µM (inactive), the GI50 (SN12C) was > 100 µM (inactive) and the GI50 (BT-549) was > 100 µM (inactive). For the same compound, the GI50 (UO-31) was > 100 µM (inactive), the GI50 (DU-145) was > 100 µM (inactive) and the GI50 (UACC-257) was > 100 µM (inactive). The GI50 (M14) was > 100 µM (inactive), the GI50 (SNB-75) was > 100 µM (inactive) and the GI50 (NCI-H460) was > 100 µM (inactive). The GI50 (A549) was > 100 µM (inactive), the GI50 (LOX IMVI) was 72.9 µM (inactive) and the GI50 (COLO 205) was > 100 µM (inactive). For the same compound, the GI50 (OVCAR-3) was 27.7 µM (inactive), the GI50 (Hs-578T) was > 100 µM (inactive) and the GI50 (MOLT-4) was 50 µM (inactive). For the same compound, the GI50 (K562) was 52 µM (inactive), the GI50 (SF-295) was > 100 µM (inactive) and the GI50 (SR) was 24 µM (inactive). For the same compound, the GI50 (MCF7) was 43 µM (inactive), the GI50 (A498) was > 100 µM (inactive) and the GI50 (SK-MEL-2) was > 100 µM (inactive). The GI50 (T47D) was > 100 µM (inactive), the GI50 (OVCAR-4) was > 100 µM (inactive) and the GI50 (MDA-MB-435) was > 100 µM (inactive). For the same compound, the GI50 (MDA-MB-231) was > 100 µM (inactive), the GI50 (IGROV-1) was > 100 µM (inactive) and the GI50 (RXF 393) was > 100 µM (inactive). The GI50 (ACHN) was > 100 µM (inactive), the GI50 (NCI-H23) was > 100 µM (inactive) and the GI50 (NCI/ADR-RES) was > 100 µM (inactive). The GI50 (PC-3) was > 100 µM (inactive), the GI50 (SW-620) was 64.1 µM (inactive) and the GI50 (HOP-92) was > 100 µM (inactive). The GI50 (HL-60) was 53.3 µM (inactive), the GI50 (SNB-19) was > 100 µM (inactive) and the GI50 (SF-539) was > 100 µM (inactive). The GI50 (Malme-3M) was > 100 µM (inactive), the GI50 (EKVX) was > 100 µM (inactive) and the GI50 (CAKI-1) was > 100 µM (inactive). The GI50 (NCI-H226) was > 100 µM (inactive), the GI50 (OVCAR-8) was > 100 µM (inactive) and the GI50 (HOP-62) was > 100 µM (inactive). For the same compound, the GI50 (OVCAR-5) was > 100 µM (inactive), the GI50 (SK-OV-3) was > 100 µM (inactive) and the GI50 (SK-MEL-28) was > 100 µM (inactive). For the same compound, the GI50 (HT-29) was > 100 µM (inactive), the GI50 (U-251) was 67.5 µM (inactive) and the GI50 (HCT-116) was 35.6 µM (inactive). The GI50 (MDA-N) was > 100 µM (inactive).
